Source: US20170369807A1, “Ionic Liquid, Lubricant, and Magnetic Recording Medium” (Dexerials Corporation, priority 2016, published 2017)

How the values were obtained:
[1] = in acetonitrile; cited from earlier work
[2] = Measurement of thermal stability (TG/DTA); conditions: for Weight reduction temperature 5% / Weight reduction temperature 10% / Weight reduction temperature 20%: TG/DTA, 30° C. to 600° C., 10° C./min, air 200 mL/min; for thermal stability (in words): compared with Z-DOL and Z-TETRAOL
[3] = Solubility test to solvents (visual observation); conditions: ultrasonic waves 5 minutes, left 1 day, visually observed, listed as Example 3A, ammonium
Experimental: To a predetermined amount of Vertrel XF, n-hexane, or ethanol, the ionic liquid was added. Ultrasonic waves were applied to the resultant mixture for 5 minutes, followed by leaving the mixture to stand for 1 day. The solubility was visually observed.
After applying ultrasonic waves to the resultant for 5 minutes, the resultant was left to stand for 1 day. Thereafter, the solubility was visually observed and evaluated based on the following evaluation criteria.
Similarly, after applying ultrasonic waves to the resultant for 5 minutes, the resultant was left to stand for 1 day. Thereafter, the solubility was visually observed and evaluated based on the following evaluation criteria.
Note that, the solubility was visually observed, and it was judged as soluble when it was transparent. Moreover, it was judged as not soluble (insoluble) when it was opaque or insoluble components were observed.

Row | Compound | pKa [1] | Weight reduction temperature 5% [2] | Weight reduction temperature 10% [2] | Weight reduction temperature 20% [2] | also measured
1 | O=S1(=O)NS(=O)(=O)C(F)(F)C(F)(F)C1(F)F [hexafluorocyclopropane-1,3-bis(sulfonyl)imide] | −0.8 | – | – | – | –
2 | CCCCCCCCCCCCN(CCCCCCCCCCCC)CCCCCCCCCCCC [Ex. 3A, trifluoromethanesulfonic acid-N,N,N-tridodecyl ammonium] | – | – | – | – | thermal stability improved compared with Z-DOL ([2]; compared with Z-DOL (Comparative Example 7C)): ≥ 120 °C; thermal stability improved compared with Z-TETRAOL ([2]; compared with Z-TETRAOL (Comparative Example 8C)): ≥ 45 °C; Solubility Fluorine-based solvent ([3]; Vertrel XF [CF3(CHF)2CF2CF3], 25° C.): ≥ 0.2 % by mass; Solubility Ethanol ([3]; ethanol): ≥ 0.5 % by mass; Solubility n-Hexane ([3]; n-hexane, 25° C.): ≥ 0.5 % by mass
3 | O=S(=O)(NS(=O)(=O)C(F)(F)C(F)(F)C(F)(F)C(F)(F)F)C(F)(F)C(F)(F)C(F)(F)C(F)(F)F [bis(nonafluorobutanesulfonyl)imide] | 0.0 | – | – | – | –
4 | CCCCCCCCCCCCCCCCCCN(C)C.O=S(=O)(NS(=O)(=O)C(F)(F)C(F)(F)C(F)(F)C(F)(F)F)C(F)(F)C(F)(F)C(F)(F)C(F)(F)F [Ex. 1A, bis(nonafluorobutanesulfonyl)imide-N,N-dimethyl-octadecyl ammonium] | – | 315.7 °C | 337.0 °C | 356.7 °C | –
5 | CCCCCCCCCCCCCCCCCCN.O=S(=O)(NS(=O)(=O)C(F)(F)C(F)(F)C(F)(F)C(F)(F)F)C(F)(F)C(F)(F)C(F)(F)C(F)(F)F [Comp. Ex. 2A, bis(nonafluorobutanesulfonyl)imide-octadecyl ammonium] | – | 311.8 °C | 329.8 °C | 348.0 °C | –
6 | nonafluorobutanesulfonic acid-trimethyloctadecyl ammonium [Comp. Ex. 5A] | – | 340.5 °C | 356.2 °C | 371.9 °C | thermal stability (in words) [2]: high
7 | O=S(=O)(O)C(F)(F)C(F)(F)C(F)(F)C(F)(F)F [nonafluorobutanesulfonic acid] | 0.7 | – | – | – | –
8 | perfluorocyclopropane sulfoimide | −0.8 | – | – | – | –
9 | O=[N+]([O-])O [nitric acid] | 9.4 | – | – | – | –
10 | pentadecafluorooctanoic acid octadecyl ammonium [Comp. Ex. 6A] | – | 206.9 °C | 215.8 °C | 223.4 °C | thermal stability (in words) [2]: lacked thermal stability
11 | F[B-](F)(F)F.[H+] [tetrafluoroboric acid] | 1.8 | – | – | – | –
12 | O=S(=O)(O)C(F)(F)F [trifluoromethanesulfonic acid] | 0.7 | – | – | – | –
13 | nonafluorobutanesulfonic acid-N-methyloctadecyl ammonium [Comp. Ex. 4A] | – | 346.8 °C | 364.0 °C | 381.1 °C | thermal stability (in words) [2]: high
14 | bis(nonafluorobutanesulfonyl)imide-N,N-dimethyl-dodecyl ammonium [Ex. 2A] | – | 308.5 °C | 331.5 °C | 353.4 °C | –
15 | CCCCCCCCCCCCCCCCCCN.O=S1(=O)NS(=O)(=O)C(F)(F)C(F)(F)C1(F)F [Comp. Ex. 3A, hexafluorocyclopropane-1,3-bis(sulfonyl)imide-octadecyl ammonium] | – | 329.6 °C | 347.0 °C | 365.1 °C | –
16 | O=C(O)C(F)(F)C(F)(F)C(F)(F)C(F)(F)C(F)(F)C(F)(F)C(F)(F)F [pentadecafluorooctanoic acid] | 12.7 | – | – | – | –
17 | nonafluorobutanesulfonic acid-octadecyl ammonium [Comp. Ex. 1A] | – | 338.8 °C | 355.2 °C | 370.4 °C | thermal stability (in words) [2]: high
